Results reported in PMC3598812, “Evaluation of Anti-Hyperalgesic and Analgesic Effects of Two Benzodiazepines in Human Experimental Pain: A Randomized Placebo-Controlled Study” (PLoS ONE, 2013).
Entries after “also recorded” stand apart in the source; their conditions may differ.

Columns and labels:
Type in all cases: in vivo, human
healthy male volunteers [1] = assay: Area of static hyperalgesia after intradermal capsaicin injection (512 mN von Frey hair); conditions: for Area of static hyperalgesia: single oral dose (clobazam 20 mg, clonazepam 1 mg, tolterodine 1 mg), mean (SD); for Change in the area of static hyperalgesia between 60 min and the measurement after flumazenil: subgroup analysis (n = 8), pairwise comparisons within each drug
From the text: Intradermal injection of capsaicin causes a brief stinging/burning pain at the injection site followed by development of secondary hyperalgesia, i.e. hyperalgesia detected at surrounding (not injected) skin [15], [16]. Secondary hyperalgesia after intradermal capsaicin is the result of sensitization of the central nervous system, which is one of the most relevant aspects of neuroplastic changes. This model was sensitive to the action of GABAergic compounds in animal studies.
The capsaicin solution was prepared by the Hospital Pharmacy and underwent sterile filtration into sterile septum-sealed vials. The sterile solution (1 mg/ml) was placed into sterile syringes and used for intradermal injection at room temperature. The skin temperature was measured using a digital thermometer, and was 32°C+/−1 in all subjects.
Subjects remained semi-supine during the experiment. Before capsaicin injection, the skin of the forearm was cleaned using an antiseptic wipe and allowed to air dry. The injection site was marked midway between the elbow and the wrist. Using a surgical skin marker, 4 lines were drawn through the injection site, so that they intersected the corners of a regular octagon (figure 2). These lines were marked every 0.5 cm from the center to the edges using a predefined grid. […] We determined the area of hyperalgesia by adding the areas of each triangle in which hyperalgesia was recorded.
Using a 1-ml tuberculin syringe fitted with a 27-gauge disposable needle, 100 µl capsaicin were injected […] into the skin, at the intersection of the 4 vectors previously drawn. A white skin elevation appeared during injection ensuring correct injection.
Static mechanical hyperalgesia was judged to be present when the subjects reported that applying a 512 mN von Frey Hair, 5 and 30 minutes after capsaicin injection, elicited pain with an intensity of at least 4 using a numerical rating scale (NRS, whereby 0 = no pain and 10 = worst pain). Only these subjects were included in the study. In order to document pain induction, the subject recorded pain intensity at injection and 5 minutes post-injection using a 10 cm visual analogue pain scale (VAS), whereby 0 = no pain and 10 = worst pain imaginable.
The area of secondary hyperalgesia was assessed using a calibrated 512 mN von Frey hair. The punctuated probe was moved along the 8 radial lines defined above, starting approximately 6 cm away from the site of injection, at each mark in steps of 0.5 cm. The weighted von Frey hair was placed gently on the skin and the load was applied for 2 seconds. The volunteers were asked to report when the pricking sensation changed to a pain sensation. At least 4 seconds elapsed between consecutive stimuli. This procedure was repeated for each vector. The number corresponding to the marker at which sensation changes as described above was noted and the individual numbers were used to calculate the area of hyperalgesia.
The flow of the experiment is illustrated in figure 3. After training, basal values for the pain tests were determined. The study medication was given immediately after the intradermal injection of capsaicin. Thus, basal values were recorded for all tests, except for those related to capsaicin injection. Because of the relatively short duration of hyperalgesia induced by capsaicin, the recordings of basal values before drug administration would yield a too short testing procedure.

healthy male volunteers [2] = assay: Cutaneous repeated (5 stimuli) electrical stimulation, temporal summation threshold; conditions: mean (SD)
From the text: (§1) The stimulus burst used for single stimulus was repeated 5 times at 2 Hz, at constant intensity. The current intensity of the 5 stimuli was increased from 1 mA in steps of 0.5 mA until the subjects felt pain during the last 2–3 of the 5 stimuli (indicating temporal summation).
Three assessments were made and the mean of these 3 measurements was used for the data analysis.

healthy male volunteers [3] = assay: Intramuscular repeated (5 stimuli) electrical stimulation pain threshold
From the text: as §1
(§2) A needle was placed in the tibialis anterior muscle, 14 cm distal from the caudal end of the patella and 20 mm in depth. The same single and repeated stimulation patterns and the same procedure described for cutaneous stimulation were used.

healthy male volunteers [4] = assay: Pain rating (VAS) after graded von Frey hair stimulation in the capsaicin hyperalgesic area; conditions: VAS 0-10, single oral dose (clobazam 20 mg, clonazepam 1 mg, tolterodine 1 mg), mean (SD)
Description: Additionally, mechanical pain sensitivity was assessed using a set of seven weighted pinprick stimuli to obtain a stimulus-response function. The test was applied 1 cm inside the outer border of the pinprick hyperalgesic area, using a set of 7 graded von Frey hair mechanical stimulators with fixed stimulus intensities (custom-made at Aalborg University, Denmark). The flat contact area of the stimulators has a 0.2 mm diameter, and the 7 stimulators exert forces of 8, 16, 32, 64, 128, 256 and 512 mN. The order of stimulation was defined randomly by computer. The stimulators were applied at a rate of 2 s on/2 s off. Subjects were asked to give a pain rating for each stimulus on a 10 cm VAS. Two assessments for each stimulation were made and the mean of these 2 measurements was used for the data analysis.

healthy male volunteers [5] = assay: Intramuscular repeated (20 stimuli) electrical stimulation, VAS; design: AUC of VAS during 20 intramuscular electrical stimuli: unit not given beside the values; conditions: for Maximal VAS during 20 intramuscular electrical stimuli: VAS 0-10; for Maximal VAS during 20 intramuscular electrical stimuli / AUC of VAS during 20 intramuscular electrical stimuli: mean (SD)
Description: The stimulus burst used for single stimulus was repeated for a train of 20 pulses at 2 Hz, at an intensity corresponding to the temporal summation threshold. During this 10 s stimulation, pain intensity was continuously rated by the subject with an electronic VAS, and the area under the curve (AUC) was computed. Additionally, the maximal VAS during stimulation was recorded.
as §2

[6] = baseline before medication, per drug session
[7] = single oral dose (clobazam 20 mg, clonazepam 1 mg, tolterodine 1 mg), 120 min after medication
[8] = single oral dose (clobazam 20 mg, clonazepam 1 mg, tolterodine 1 mg), after flumazenil 0.2 mg iv

## O=C1CN=C(c2ccccc2Cl)c2cc([N+](=O)[O-])ccc2N1 [Clonazepam]
Healthy male volunteers [1]; main analysis, pairwise multiple comparisons within each drug
  Change in the area of static hyperalgesia over time: no statistically significant increase
Healthy male volunteers [1]; 30 min after medication
  Area of static hyperalgesia: 37.9 (13.6) cm^2
Healthy male volunteers [1]; 60 min after medication
  Area of static hyperalgesia: 45.6 (15.3) cm^2
Healthy male volunteers [1]; 90 min after medication
  Area of static hyperalgesia: 43.4 (14.3) cm^2
Healthy male volunteers [1]; 120 min after medication
  Area of static hyperalgesia: 41.9 (11.6) cm^2
Healthy male volunteers [1]; after flumazenil 0.2 mg iv
  Area of static hyperalgesia: 39.4 (12.3) cm^2
Healthy male volunteers [1]
  Change in the area of static hyperalgesia between 60 min and the measurement after flumazenil: Decrease in the area of hyperalgesia after Clonazepam
Healthy male volunteers [1]; listed as clonazepam
  Change in the area of static hyperalgesia between 60 min and the measurement after flumazenil: significantly decreases
Healthy male volunteers [2]; [6]
  Pain threshold after 5 cutaneous electrical stimuli: 8.2 (3.1) mA
Healthy male volunteers [2]; single oral dose (clobazam 20 mg, clonazepam 1 mg, tolterodine 1 mg), 30 min after medication
  Pain threshold after 5 cutaneous electrical stimuli: 8.2 (3.0) mA
Healthy male volunteers [2]; single oral dose (clobazam 20 mg, clonazepam 1 mg, tolterodine 1 mg), 60 min after medication
  Pain threshold after 5 cutaneous electrical stimuli: 8.5 (2.9) mA
Healthy male volunteers [2]; single oral dose (clobazam 20 mg, clonazepam 1 mg, tolterodine 1 mg), 90 min after medication
  Pain threshold after 5 cutaneous electrical stimuli: 8.8 (3.2) mA
Healthy male volunteers [2]; [7]
  Pain threshold after 5 cutaneous electrical stimuli: 9.1 (3.1) mA
Healthy male volunteers [2]; [8]
  Pain threshold after 5 cutaneous electrical stimuli: 9.2 (3.3) mA
Healthy male volunteers [3]; baseline before medication, per drug session, mean (SD)
  Pain threshold after 5 intramuscular electrical stimuli: 1.6 (1.1) mA
Healthy male volunteers [3]; main analysis, pairwise multiple comparison
  Change in pain threshold after 5 intramuscular electrical stimuli between baseline and 120 minutes: statistically significant increase; also recorded: Significant increase in pain thresholds
Healthy male volunteers [3]; peak value analysis, pairwise comparisons within each drug
  Change in pain detection threshold after 5 intramuscular electrical stimuli from baseline to peak value: significant increase; also recorded: Consistent for an increase in pain thresholds after clobazam and clonazepam
Healthy male volunteers [3]; single oral dose (clobazam 20 mg, clonazepam 1 mg, tolterodine 1 mg), 120 min after medication, mean (SD)
  Pain threshold after 5 intramuscular electrical stimuli: 2.3 (1.6) mA
Healthy male volunteers [3]; single oral dose (clobazam 20 mg, clonazepam 1 mg, tolterodine 1 mg), after flumazenil 0.2 mg iv, mean (SD)
  Pain threshold after 5 intramuscular electrical stimuli: 2.9 (2.3) mA
Healthy male volunteers [3]; subgroup analysis (n = 8), 120 minutes, mean
  Pain threshold after 5 intramuscular electrical stimuli: 2.93 mA
Healthy male volunteers [3]; subgroup analysis (n = 8), after flumazenil administration, mean
  Pain threshold after 5 intramuscular electrical stimuli: 3.58 mA
Healthy male volunteers [3]; subgroup analysis (n = 8), baseline, mean
  Pain threshold after 5 intramuscular electrical stimuli: 1.69 mA
Healthy male volunteers [4]; 30 min after medication
  VAS after von Frey hair 8 mN: 1.4 (1.5)
  VAS after von Frey hair 16 mN: 1.6 (1.2)
  VAS after von Frey hair 32 mN: 1.9 (1.5)
  VAS after von Frey hair 64 mN: 2.8 (1.8)
  VAS after von Frey hair 128 mN: 3.2 (4.2)
  VAS after von Frey hair 256 mN: 4.2 (2.2)
  VAS after von Frey hair 512 mN: 5.2 (2.1)
Healthy male volunteers [4]; 60 min after medication
  VAS after von Frey hair 8 mN: 1.2 (0.9)
  VAS after von Frey hair 16 mN: 1.8 (1.9)
  VAS after von Frey hair 32 mN: 2.0 (2.0)
  VAS after von Frey hair 64 mN: 2.7 (2.0)
  VAS after von Frey hair 128 mN: 3.5 (2.0)
  VAS after von Frey hair 256 mN: 4.1 (1.8)
  VAS after von Frey hair 512 mN: 5.1 (2.0)
Healthy male volunteers [4]; 90 min after medication
  VAS after von Frey hair 8 mN: 0.8 (0.8)
  VAS after von Frey hair 16 mN: 1.3 (1.0)
  VAS after von Frey hair 32 mN: 1.8 (1.4)
  VAS after von Frey hair 64 mN: 2.1 (1.6)
  VAS after von Frey hair 128 mN: 2.8 (1.7)
  VAS after von Frey hair 256 mN: 4.4 (2.0)
  VAS after von Frey hair 512 mN: 5.3 (2.1)
Healthy male volunteers [4]; 120 min after medication
  VAS after von Frey hair 8 mN: 1.0 (0.8)
  VAS after von Frey hair 16 mN: 1.4 (1.2)
  VAS after von Frey hair 32 mN: 2.1 (1.7)
  VAS after von Frey hair 64 mN: 2.3 (1.5)
  VAS after von Frey hair 128 mN: 2.9 (1.9)
  VAS after von Frey hair 256 mN: 3.9 (2.2)
  VAS after von Frey hair 512 mN: 5.0 (1.9)
Healthy male volunteers [4]; after flumazenil 0.2 mg iv
  VAS after von Frey hair 8 mN: 0.6 (0.6)
  VAS after von Frey hair 16 mN: 1.4 (1.2)
  VAS after von Frey hair 32 mN: 1.6 (1.4)
  VAS after von Frey hair 64 mN: 2.2 (1.7)
  VAS after von Frey hair 128 mN: 2.6 (1.9)
  VAS after von Frey hair 256 mN: 3.8 (1.7)
  VAS after von Frey hair 512 mN: 4.9 (1.7)
Healthy male volunteers [5]; [6]
  Maximal VAS during 20 intramuscular electrical stimuli: 4.3 (1.4)
  AUC of VAS during 20 intramuscular electrical stimuli: 307 (138)
Healthy male volunteers [5]; [7]
  Maximal VAS during 20 intramuscular electrical stimuli: 3.2 (2.4)
  AUC of VAS during 20 intramuscular electrical stimuli: 236 (204)
Healthy male volunteers [5]; [8]
  Maximal VAS during 20 intramuscular electrical stimuli: 2.8 (2.0)
  AUC of VAS during 20 intramuscular electrical stimuli: 209 (178)
Healthy male volunteers [5]; subgroup analysis (n = 8), pairwise comparisons vs tolterodine and clobazam
  Maximal VAS during 20 intramuscular electrical stimuli, comparison among drugs: lower values; also recorded: Significantly lower maximal VAS with clonazepam, compared with tolterodine and clobazam in the subgroup analysis
